Results taken from US20250230193A1, “CYCLIC COMPOUND HAVING SELECTIVE KRAS INHIBITORY EFFECT ON HRAS AND NRAS” (CHUGAI SEIYAKU KABUSHIKI KAISHA, priority 2022, published 2025).

Experiments:
[1] = molecular target: GDP-bound NRAS wild-type protein (Homo sapiens, UniProt P01111); experiment: Binding to NRAS by surface plasmon resonance (SPR), Single Cycle Kinetics; conditions: SPR; for NRAS/KRAS (ratio of KD value with respect to NRAS to KD value with respect to KRAS) / NRAS/KRAS (ratio of KD value for NRAS to KD value for KRAS): GDP-bound NRAS wild-type vs GDP-bound KRAS wild-type
[2] = molecular target: GDP-bound HRAS wild-type protein (Homo sapiens, UniProt P01112); experiment: Binding to HRAS by surface plasmon resonance (SPR), Single Cycle Kinetics; conditions: SPR; for HRAS/KRAS (ratio of KD value with respect to HRAS to KD value with respect to KRAS) / HRAS/KRAS (ratio of KD value for HRAS to KD value for KRAS): GDP-bound HRAS wild-type vs GDP-bound KRAS wild-type
Sequence of GDP-bound HRAS wild-type protein (P01112 whole entry): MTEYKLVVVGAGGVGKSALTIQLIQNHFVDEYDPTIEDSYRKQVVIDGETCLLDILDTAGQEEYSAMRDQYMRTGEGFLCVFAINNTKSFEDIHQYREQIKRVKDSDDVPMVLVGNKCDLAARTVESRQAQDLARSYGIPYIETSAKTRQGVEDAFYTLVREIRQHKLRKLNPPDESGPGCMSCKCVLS

Sequence of GDP-bound NRAS wild-type protein (P01111 whole entry): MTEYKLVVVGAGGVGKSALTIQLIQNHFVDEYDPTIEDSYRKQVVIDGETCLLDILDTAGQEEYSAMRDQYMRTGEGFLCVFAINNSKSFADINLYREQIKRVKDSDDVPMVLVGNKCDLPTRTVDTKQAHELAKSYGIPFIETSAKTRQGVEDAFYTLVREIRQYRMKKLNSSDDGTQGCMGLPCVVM

| Structure (SMILES) | NRAS/KRAS (ratio of KD value with respect to NRAS to KD value with respect to KRAS) ([1]; KD ratio) | HRAS/KRAS (ratio of KD value with respect to HRAS to KD value with respect to KRAS) ([2]; KD ratio) | NRAS/KRAS (ratio of KD value for NRAS to KD value for KRAS) ([1]; KD ratio) | HRAS/KRAS (ratio of KD value for HRAS to KD value for KRAS) ([2]; KD ratio) | other results |
| --- | --- | --- | --- | --- | --- |
| CCCO[C@H]1CCN2C(=O)[C@H](CCc3cc(F)c(C(F)(F)F)c(F)c3)NC(=O)CN(C)C(=O)[C@H](Cc3ccc(C(F)(F)F)cc3)N3CCCC[C@@H](C3=O)N(C)C(=O)CN(C)C(=O)[C@H]([C@@H](C)CC)NC(=O)[C@H](CC(C)C)N(C)C(=O)C[C@@H](C(=O)N3CCOCC3)N(C)C(=O)[C@H](C3CCCC3)N(C)C(=O)C3(CCC3)NC(=O)[C@H]12 [PP1077] | B (a compound having 3 or more and less than 10 is denoted as B) | B (a compound having 3 or more and less than 10 is denoted as B) |  |  |  |
| CCC[C@@H]1C[C@H]2C(=O)NC3(CC(C)(C)C3)C(=O)N(C)[C@@H](C3CCCC3)C(=O)N(C)[C@H](C(=O)N(C)C)CC(=O)N(C)[C@@H](C)C(=O)N[C@@H]([C@@H](C)CC)C(=O)N(C)CC(=O)N(C)[C@H]3C/C=C\CCN(C3=O)[C@@H](Cc3ccc(C(F)(F)F)cc3)C(=O)N(C)CC(=O)N[C@@H](CCc3cc(F)c(C(F)(F)F)c(F)c3)C(=O)N2C1 [PP2273] |  |  |  |  | NRAS/KRAS (ratio of KD value with respect to NRAS to KD value with respect to KRAS) [1]: AA (a compound having 20 or more is denoted as AA); HRAS/KRAS (ratio of KD value with respect to HRAS to KD value with respect to KRAS) [2]: A (a compound having 10 or more and less than 20 is denoted as A) |
| CCO[C@@H]1C[C@H]2C(=O)NC3(CC(C)(C)C3)C(=O)N(C)[C@@H](C3CCCC3)C(=O)N(C)[C@H](C(=O)N(C)C)CC(=O)N(C)[C@@H](CC)C(=O)N[C@@H]([C@@H](C)CC)C(=O)N(C)CC(=O)N(C)[C@H]3C/C=C\CCN(C3=O)[C@@H](Cc3ccc(C)cc3)C(=O)N(C)CC(=O)N[C@@H](CCc3ccc(C(F)(F)F)c(OC)c3)C(=O)N2C1 [PP1873] |  |  | A (a compound having 10 or more and less than 20 is denoted as A) | B (a compound having 3 or more and less than 10 is denoted as B) |  |
| CCC[C@H]1C(=O)N[C@@H]([C@@H](C)CC)C(=O)N(C)CC(=O)N(C)[C@H]2C/C=C\CCN(C2=O)[C@@H](Cc2ccc(C(F)(F)F)cc2)C(=O)N(C)CC(=O)N[C@@H](CCc2cc(F)c(C(F)(F)F)c(F)c2)C(=O)N2C[C@H](OCC)C[C@H]2C(=O)NC2(CCC2)C(=O)N(C)[C@@H](C2CCCC2)C(=O)N(CCC)[C@H](C(=O)N(C)C)CC(=O)N1C [PP1769] |  |  | A (a compound having 10 or more and less than 20 is denoted as A) | A (a compound having 10 or more and less than 20 is denoted as A) |  |
| CCO[C@@H]1C[C@H]2C(=O)N(C)C3(CCCC3)C(=O)N(C)[C@@H](C3CCCC3)C(=O)N(C)[C@H](C(=O)N(C)C)CC(=O)N(C)[C@@H](CC)C(=O)N[C@@H]([C@@H](C)CC)C(=O)N3CCC[C@H]3C(=O)N(C)[C@H]3C/C=C\CCN(C3=O)[C@@H](Cc3ccc(C)cc3)C(=O)N(C)CC(=O)N[C@@H](CCc3cc(F)c(C(F)(F)F)c(F)c3)C(=O)N2C1 [PP1810] |  |  | A (a compound having 10 or more and less than 20 is denoted as A) | B (a compound having 3 or more and less than 10 is denoted as B) |  |
| CC[C@H](C)[C@@H]1NC(=O)[C@@H]2CCCc3ccc(cc3)C[C@@H](C(=O)N(C)CC(=O)N[C@@H](CCc3ccc(C(F)(F)F)c(OC)c3)C(=O)N3C[C@H](OC4CCCC4)C[C@H]3C(=O)NC3(CC(C)(C)C3)C(=O)N(C)[C@@H](C3CCCC3)C(=O)N(C)[C@H](C(=O)N(C)CC)CC(=O)N2C)N2CC/C=C\C[C@@H](C2=O)N(C)C(=O)CN(C)C1=O [PP3086] |  |  |  |  | NRAS/KRAS (ratio of KD value with respect to GDP-bound NRAS wild-type protein to KD value with respect to KRAS) ([1]; KD ratio NRAS/KRAS, GDP-bound wild-type proteins): B (a compound having 3 or more and less than 10 is denoted as B); HRAS/KRAS (ratio of KD value with respect to GDP-bound HRAS wild-type protein to KD value with respect to KRAS) ([2]; KD ratio HRAS/KRAS, GDP-bound wild-type proteins): B (a compound having 3 or more and less than 10 is denoted as B) |
| CC[C@H](C)[C@@H]1NC(=O)[C@H](COC)N(C)C(=O)C[C@@H](C(=O)N2CCOCC2)N(C)C(=O)[C@H](C2CCCC2)N(C)C(=O)C2(CCC2)NC(=O)[C@@H]2CC(F)(F)CN2C(=O)[C@H](CCc2cc(F)c(C(F)(F)F)c(F)c2)NC(=O)CN(C)C(=O)[C@H](Cc2ccc(C(F)(F)F)cc2)N2CCCCC[C@@H](C2=O)N(C)C(=O)[C@@H]2CCN2C1=O [PP0866] | B (a compound having 3 or more and less than 10 is denoted as B) | B (a compound having 3 or more and less than 10 is denoted as B) |  |  |  |
| CCO[C@@H]1C[C@H]2C(=O)NC3(CCC3)C(=O)N(C)[C@@H](C3CCCC3)C(=O)N(C)[C@H](C(=O)N3CCOCC3)CC(=O)N(C)[C@@H](CC(C)C)C(=O)N[C@@H]([C@@H](C)CC)C(=O)N(C)CC(=O)N(C)[C@H]3CCCCCN(C3=O)[C@@H](Cc3ccc(F)cc3OC)C(=O)N(C)CC(=O)N[C@@H](CCc3cc(F)c(C(F)(F)F)c(F)c3)C(=O)N2C1 [PP0924] | B (a compound having 3 or more and less than 10 is denoted as B) | B (a compound having 3 or more and less than 10 is denoted as B) |  |  |  |
